The text below walks through data of US20230263746A1, “Synergistic Polyamine Combinations And Methods Therefor” (Compound Solutions Inc., priority 2022, published 2023).

Entries after “also recorded” stand apart in the source; their conditions may differ.

Assay [1] has as its system wildtype C. elegans. Kind of assay: Locomotor activity (healthspan) scoring in C. elegans with respect to age. It is filed as in vivo. The source says: FIG. 7 depicts a method of scoring locomotor activity in C. elegans wherein the animal's displacement from a fixed boundary determines an activity score. […] Using C. elegans as test subjects, this measurement can be accomplished by assigning each animal a digitally fixed boundary and observing each animal's displacement from that boundary. […] An additional control group was given no treatment. All groups were loaded into chips at the L4-stage. From the 1st day of adulthood, the animals were switched to heat-killed OP50 plus the appropriate compound. The displacement of each animal from its assigned fixed boundary determined an activity score.

The subject of assay [2] is wildtype C. elegans. Kind of assay: Lifespan in a C. elegans model. In kind it is in vivo. The settings on record: for effect on lifespan compared to control: 100 μM resveratrol, 500 μM NMN, 20 μg/mL spermidine, 6 μg/mL spermine, or 20 μg/mL spermidine with 6 μg/mL spermine, scored daily until all animals dead; for fraction of live organisms at the same date compared to control: at and after day 12 (latter third in life), FIG. 4. The source says: One physiological marker found to be beneficially and synergistically modulated by the compositions presented herein is lifespan. […] An additional control group was given no treatment. All groups were loaded into chips at the L4-stage. From the 1st day of adulthood, the animals were switched to heat-killed OP50 plus the appropriate compound. Chips were scored daily until all animals were dead.

Where [3] appears, read: days 10 and 12 of animal life, 100 μM resveratrol, 500 μM NMN.

As for `NC(=O)c1ccc[n+]([C@@H]2O[C@H](COP(=O)([O-])O)[C@@H](O)[C@H]2O)c1` [NMN, nicotinamide mononucleotide, reference compound], in the assay on wildtype C. elegans [1] (setting [3]), the “locomotor activity compared to untreated/wildtype” value is on record as “significantly higher levels of activity than the wildtype C. elegans; also recorded: significantly higher levels of activity than untreated groups”. For the same compound, in the assay on wildtype C. elegans [2], the “effect on lifespan compared to control” value is given as “strongest increase to lifespan compared to control”.
Regarding `Oc1ccc(C=Cc2cc(O)cc(O)c2)cc1` [resveratrol, reference compound], in the assay on wildtype C. elegans [1] (setting [3]), the “locomotor activity compared to untreated/wildtype” value is “remain more active than the wildtype C. elegans; also recorded: significantly higher levels of activity than untreated groups”. Also, the “effect on lifespan compared to control” value in the assay on wildtype C. elegans [2] is “strongest increase to lifespan compared to control”.
For `NCCCCNCCCN` [spermidine], the “locomotor activity compared to untreated/wildtype” value in the assay on wildtype C. elegans [1] (with respect to age (all ages scored), 20 μg/mL spermidine) is “do not show statistically significant difference in activity levels compared to wildtype C. elegans; also recorded: did not show any significant difference in activity levels compared to the untreated group”. In the assay with wildtype C. elegans [2], the “effect on lifespan compared to control” value is recorded as “weakest effect on lifespan, yet still significant; also recorded: slight lifespan extension compared to the untreated group” and the “fraction of live organisms at the same date compared to control” value is listed as “increased over control”.
As to `NCCCNCCCCNCCCN` [spermine], the “locomotor activity compared to untreated/wildtype” value in the assay on wildtype C. elegans [1] (day 8 of animal life, 6 μg/mL spermine) is reported as “significantly more activity; also recorded: significant differences in activity levels compared to the untreated group”; in the assay on wildtype C. elegans [1] (later ages (after day 8), 6 μg/mL spermine), “does not seem to persist significantly into later ages; also recorded: did not persist into later ages”. For the same compound, in the assay on wildtype C. elegans [2], the “effect on lifespan compared to control” value is given as “significant effects on lifespan”. Also, the “fraction of live organisms at the same date compared to control” value in the assay on wildtype C. elegans [2] is “increased over control”.
